Values quoted from earlier work as cited in US20040235879A1, “Method for treatment of chemotherapy-induced diarrhea” (priority 2003, published 2004).
Structures can show the parent of a compound that is named as a salt.

Assays:
[1] = cited from earlier work
P-gp (ABCB1) = P-gp (ABCB1) (Homo sapiens, UniProt P08183); conditions: cited from earlier work
BCRP/MXR/ABCP (ABCG2) = target: T1, BCRP/MXR/ABCP (ABCG2) (Homo sapiens, UniProt Q9UNQ0); conditions: cited from earlier work
T1 sequence (Q9UNQ0 1-655): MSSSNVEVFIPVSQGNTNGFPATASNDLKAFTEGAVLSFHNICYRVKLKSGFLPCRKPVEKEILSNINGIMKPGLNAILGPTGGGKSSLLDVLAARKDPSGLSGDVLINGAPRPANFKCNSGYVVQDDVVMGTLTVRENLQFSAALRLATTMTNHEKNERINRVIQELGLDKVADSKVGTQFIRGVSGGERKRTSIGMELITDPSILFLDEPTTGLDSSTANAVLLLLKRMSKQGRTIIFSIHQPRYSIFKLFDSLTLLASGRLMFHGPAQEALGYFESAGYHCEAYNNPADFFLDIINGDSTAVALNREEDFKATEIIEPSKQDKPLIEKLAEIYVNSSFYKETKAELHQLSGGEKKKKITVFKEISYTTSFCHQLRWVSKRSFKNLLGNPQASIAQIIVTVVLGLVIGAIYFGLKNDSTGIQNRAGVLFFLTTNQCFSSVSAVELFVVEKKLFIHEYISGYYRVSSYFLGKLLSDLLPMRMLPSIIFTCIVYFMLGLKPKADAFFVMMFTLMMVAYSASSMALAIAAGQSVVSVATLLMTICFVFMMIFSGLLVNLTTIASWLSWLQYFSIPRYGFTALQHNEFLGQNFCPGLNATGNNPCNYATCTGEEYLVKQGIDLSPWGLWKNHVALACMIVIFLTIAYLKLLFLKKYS

MRP2 (ABCC2) = MRP2 (ABCC2) (Homo sapiens, UniProt Q92887); conditions: cited from earlier work
MRP2 (ABCC2), sequence (Q92887 whole entry, species assumed): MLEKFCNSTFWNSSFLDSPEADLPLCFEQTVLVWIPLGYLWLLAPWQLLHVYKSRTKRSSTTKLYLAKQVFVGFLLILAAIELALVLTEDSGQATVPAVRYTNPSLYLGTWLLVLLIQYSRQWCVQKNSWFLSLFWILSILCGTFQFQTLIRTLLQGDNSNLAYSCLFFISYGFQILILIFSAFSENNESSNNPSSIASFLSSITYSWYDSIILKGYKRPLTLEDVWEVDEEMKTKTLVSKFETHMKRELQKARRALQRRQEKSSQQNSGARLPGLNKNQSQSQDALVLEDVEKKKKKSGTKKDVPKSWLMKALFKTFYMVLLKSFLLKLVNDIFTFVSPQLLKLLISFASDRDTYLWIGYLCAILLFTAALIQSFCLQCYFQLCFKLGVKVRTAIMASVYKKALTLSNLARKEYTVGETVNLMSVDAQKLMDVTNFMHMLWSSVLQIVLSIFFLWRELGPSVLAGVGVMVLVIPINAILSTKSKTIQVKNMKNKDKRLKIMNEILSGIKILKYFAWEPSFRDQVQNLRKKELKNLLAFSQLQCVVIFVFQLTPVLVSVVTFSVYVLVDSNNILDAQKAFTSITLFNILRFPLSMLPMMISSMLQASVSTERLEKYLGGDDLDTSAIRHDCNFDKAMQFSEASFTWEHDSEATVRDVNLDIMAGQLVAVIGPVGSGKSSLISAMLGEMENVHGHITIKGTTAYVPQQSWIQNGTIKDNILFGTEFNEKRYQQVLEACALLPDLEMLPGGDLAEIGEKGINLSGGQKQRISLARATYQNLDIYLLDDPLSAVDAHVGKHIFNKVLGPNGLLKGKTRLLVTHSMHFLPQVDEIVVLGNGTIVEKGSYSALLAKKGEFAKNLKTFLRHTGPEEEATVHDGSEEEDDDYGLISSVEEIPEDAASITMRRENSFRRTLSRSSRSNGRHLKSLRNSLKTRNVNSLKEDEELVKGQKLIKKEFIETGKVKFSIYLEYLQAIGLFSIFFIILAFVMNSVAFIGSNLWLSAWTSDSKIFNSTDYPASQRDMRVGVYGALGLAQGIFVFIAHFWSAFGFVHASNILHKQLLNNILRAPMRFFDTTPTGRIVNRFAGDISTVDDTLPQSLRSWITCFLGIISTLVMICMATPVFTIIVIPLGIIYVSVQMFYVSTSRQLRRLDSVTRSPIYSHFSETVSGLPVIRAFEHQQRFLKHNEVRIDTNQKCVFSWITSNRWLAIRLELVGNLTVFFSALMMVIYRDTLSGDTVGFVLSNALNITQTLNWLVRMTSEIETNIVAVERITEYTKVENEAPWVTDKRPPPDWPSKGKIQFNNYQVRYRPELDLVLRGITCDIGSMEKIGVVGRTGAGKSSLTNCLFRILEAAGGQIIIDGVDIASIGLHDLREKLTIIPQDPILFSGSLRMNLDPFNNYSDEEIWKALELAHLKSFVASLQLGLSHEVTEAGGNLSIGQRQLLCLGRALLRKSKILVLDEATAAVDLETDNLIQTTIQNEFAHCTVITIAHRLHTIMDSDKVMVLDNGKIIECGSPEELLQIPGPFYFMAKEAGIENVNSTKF

P-gp (ABCB1), sequence (P08183 whole entry, species assumed): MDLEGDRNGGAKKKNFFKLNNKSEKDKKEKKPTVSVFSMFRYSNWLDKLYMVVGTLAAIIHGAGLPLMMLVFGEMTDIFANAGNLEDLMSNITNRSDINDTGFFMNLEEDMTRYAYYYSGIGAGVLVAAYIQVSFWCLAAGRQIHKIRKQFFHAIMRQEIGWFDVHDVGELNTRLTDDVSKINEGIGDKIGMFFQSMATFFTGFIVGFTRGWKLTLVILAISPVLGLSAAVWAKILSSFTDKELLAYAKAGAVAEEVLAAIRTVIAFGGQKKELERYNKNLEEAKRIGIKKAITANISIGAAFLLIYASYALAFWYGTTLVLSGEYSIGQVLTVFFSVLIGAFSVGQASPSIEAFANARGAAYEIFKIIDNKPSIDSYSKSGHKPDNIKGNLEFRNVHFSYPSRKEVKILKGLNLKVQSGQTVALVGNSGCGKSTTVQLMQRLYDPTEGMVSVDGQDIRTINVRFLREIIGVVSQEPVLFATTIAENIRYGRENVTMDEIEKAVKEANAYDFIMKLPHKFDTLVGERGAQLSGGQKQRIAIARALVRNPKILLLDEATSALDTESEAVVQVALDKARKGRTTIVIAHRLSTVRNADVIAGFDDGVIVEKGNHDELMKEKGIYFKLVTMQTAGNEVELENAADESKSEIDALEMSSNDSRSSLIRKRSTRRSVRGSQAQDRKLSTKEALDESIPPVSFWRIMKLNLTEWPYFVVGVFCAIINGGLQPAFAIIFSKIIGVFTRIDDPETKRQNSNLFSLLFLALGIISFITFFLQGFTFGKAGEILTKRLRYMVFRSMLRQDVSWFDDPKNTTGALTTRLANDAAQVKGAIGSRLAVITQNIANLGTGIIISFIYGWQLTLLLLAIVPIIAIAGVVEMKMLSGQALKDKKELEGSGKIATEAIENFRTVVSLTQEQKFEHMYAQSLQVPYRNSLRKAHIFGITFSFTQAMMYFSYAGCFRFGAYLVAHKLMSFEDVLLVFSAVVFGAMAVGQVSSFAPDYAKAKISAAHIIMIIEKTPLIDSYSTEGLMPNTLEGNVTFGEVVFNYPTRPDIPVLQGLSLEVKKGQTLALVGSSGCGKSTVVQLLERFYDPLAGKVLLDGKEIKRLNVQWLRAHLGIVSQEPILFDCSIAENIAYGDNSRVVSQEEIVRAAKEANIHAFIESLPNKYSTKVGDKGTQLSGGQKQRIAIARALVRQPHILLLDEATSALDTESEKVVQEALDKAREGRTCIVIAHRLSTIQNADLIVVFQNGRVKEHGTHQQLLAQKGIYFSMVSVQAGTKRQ

O=c1[nH]cc(F)c(=O)[nH]1 [5-fluorouracil]
patients with severe or life-threatening diarrhea ([1]; 5-fluorouracil alone): About 8%
frequency of severe or life-threatening diarrhea ([1]; 5-fluorouracil combined with leucovorin): up to 25%

CCc1c2c(nc3ccc(OC(=O)N4CCC(N5CCCCC5)CC4)cc13)-c1cc3c(c(=O)n1C2)COC(=O)[C@]3(O)CC [CPT-11, Irinotecan hydrochloride]
patients requiring hospitalization because of diarrhea ([1]; diarrhea alone or in combination with other gastrointestinal disturbances): more than 18%

CCc1c2c(nc3ccc(OC(=O)N4CCC(N5CCCCC5)CC4)cc13)-c1cc3c(c(=O)n1C2)COC(=O)[C@]3(O)CC [irinotecan, [1,4′-Bipiperidine]-1′-carboxylic acid (4S)-4,11-diethyl-3,4,12,14-tetrahydro-4-hydroxy-3,14-dioxo-1H-pyrano[3′,4′:6,7]indolizino[1,2-b]quinolin-9-yl ester]
substrate of P-gp (ABCB1) (P-gp (ABCB1)): substrate
substrate of BCRP/MXR/ABCP (ABCG2) (BCRP/MXR/ABCP (ABCG2)): substrate
substrate of MRP2 (ABCC2) (MRP2 (ABCC2)): substrate
